Laboratory results as given in patent US12083105B2, “Compositions and methods for treating adult-onset neuronal ceroid lipofuscinosis (Kufs disease)” (CORNELL UNIVERSITY, priority 2020, dated 2024).

Tested on: Fe—S clusters bound to immunoprecipitated CSPα
Experiment: UV-Vis absorbance spectra of CSPα immunoprecipitated from ANCL patient fibroblasts
Assay type: cell-based, human
Conditions: 200 μM, 72 h, compared to control (0.1% DMSO), FIG. 7A
Method: ANCL patient-derived fibroblasts were treated with 200 μM of L1 or Dfx, or vehicle (0.1% DMSO=Control) for 72 h, before measuring the UV-Vis absorbance spectra of immunoprecipitated CSPα eluted by trypsinization (solid lines). Spectra were re-read after 10 min of 0.1 N HCl treatment (dashed lines). The experiments shown in FIGS. 7B-7I, were conducted using ANCL fibroblasts converted to iNs using BAM+ND1 technique. […] Quantitative immunoblotting was used to measure levels of oligomerized and fully palmitoylated CSPα as well as total SNAP-25. Oligo=oligomers; Palm=palmitoylated. […] The interaction of CSPα with SNAP-25 in ANCL iNs was measured by immunoprecipitating SNAP-25 followed by quantitative immunoblotting of co-immunoprecipitated CSPα (normalized to SNAP-25 IP). Note that mainly CSPα monomers and not oligomers were detected bound to SNAP-25. Control=control sham IP without IgG. […] Turnover of SNAP-25 was determined by cycloheximide chase, while maintaining the iron-chelators or vehicle in the medium. […] In the experiments shown in FIGS. 7E-7G, ANCL iNs treated with L1, Dfx, or vehicle for 56 d and analyzed. […] The levels of lipofuscin were determined by ELISA. In the experiments shown in FIGS. 7H-7I 56 day old untreated ANCL iNs were treated with L1, Dfx, or vehicle, and analyzed. […]

In the case of `CC(=O)N(O)CCCCCNC(=O)CCC(=O)N(O)CCCCCNC(=O)CCC(=O)N(O)CCCCCN` [Dfx, N′-[5-(Acetyl-hydroxy-amino)pentyl]-N-[5-[3-(5-aminopentyl-hydroxy-carbamoyl)propanoylamino]pentyl]-N-hydroxy-butane diamide], the “UV-Vis signature of Fe—S clusters bound to immunoprecipitated CSPα” value is reported as “reduced”.

With `Cc1c(O)c(=O)ccn1C` [L1, 3-hydroxy-1,2-dimethyl-4(1H)-pyridone] the “UV-Vis signature of Fe—S clusters bound to immunoprecipitated CSPα” value was “reduced”.
